Values of other authors in patent US20230338413A1, “ORAL DELIVERY OF HEPARINS” (GUANGZHOU DAZHOU BIOMEDICINE LTD., priority 2021, published 2023).

## O=C([O-])CCCCCCCNC(=O)c1ccccc1O.[Na+] [SNAC, sodium N-(8-(2-hydroxybenzoyl)amino)caprylate]
SNAC by itself, initial clinical studies
  Effects on coagulation: no effects on coagulation
Human subjects, single oral dose: 30,000 USP Heparin Units alone or SNAC alone 1.4 to 10.5 g
  Measurements of anticoagulation (aPTT, TFPI and anti-Factors IIa and Xa levels): did not change
